These results are taken from patent US20130296358A1, “3-SPIROCYCLIC PIPERIDINE DERIVATIVES AS GHRELIN RECEPTOR AGONISTS” (priority 2012, published 2013).

Test [1] addresses T1, human recombinant ghrelin receptor (GHS-R1a) (Homo sapiens, UniProt Q92847).
T1 construct: host or cells: CHO-K1
As to the kind of experiment: Calcium assay, CHO-K1 cells expressing hGHS-R1a (Fluo-4). In kind it is cell-based. The conditions noted are these: CHO-K1, relative to the Emax induced by MK-0677 (defined as 100%); read-out: hGHS-R1a Ca assay Emax/%. The procedure: (§1) Chinese hamster ovary (CHO-K1) cells expressing human recombinant ghrelin receptor (GHS-R1a) were purchased from Euroscreen (ES-410-C) and propagated in UltraCHO medium containing glutamine and supplemented with 1% heat inactivated foetal calf serum (FCS), 100 U/ml penicillin, 100 mg/l streptomycin and 0.8 g/l geneticin. Cells were sub-cultured twice a week with a 1:10 dilution. For passaging, cells were washed with 1× DPBS without calcium and magnesium, trypsinised for 10 min with 0.05% Trypsin/EDTA and resuspended in cell culture medium.
Cells were diluted to achieve 1×10^6 cells/ml, seeded in 384-well black clear bottom CellBind plates at 25000 cells/well (25u1) and incubated overnight at 37° C./5% CO2 Cells were expected to be 85-90% confluent on the day of assay (checked under the microscope) to ensure a high quality assay. Media was manually removed and 40 μl of loading solution containing probenecid and Fluo-4 no wash dye (a calcium indicator, Invitrogen F36206) were added to each well. After 30 min at 37° C. followed by another 30 min at RT, cpds were added to the wells. To generate a dose response up to 30 μM, 10 mM compound stocks in 100% (v/v) DMSO were firstly diluted in 50% (v/v) DMSO. Then, serial dilutions aimed at a full logarithmic dose responses (8 point) were performed in assay buffer [1×HBSS, 20 mM Hepes, 0.1% (w/v) BSA] to give 2.5% (v/v) DMSO and 5× final compound concentrations. The final assay DMSO concentration was 0.5% (v/v). After loading the cells with Fluo-4 containing solution, plates were read on a CeIlLux instrument (Perkin Elmer). A protocol set up to add 10 μl of 5× compound and to read the plate for 60sec after adding the compound at 17th sec was used. Fluorescence excitation took place at 494 nm and emission at 516 nm. EC50 values of agonists were calculated by fitting the percent stimulation over background [(Max-Min)/Min] using the nonlinear logistic function of the Prism 5 software (GraphPad, USA).

Test [2] addresses T1, human recombinant ghrelin receptor (GHS-R1a). The test is described as follows: cAMP assay (HTRF), CHO-hGHS-R1a cells. In kind it is cell-based. Particulars: relative to the ghrelin response (defined as 100%). The method, then: as §1
The Homogeneous Time-Resolved Fluorescence (HTRF) cAMP dynamic 2 kit (Cisbio International, France) was used as follows. CHO-hGHS—R1a or CHO-rGHS—R1a cells were seeded in a volume of 25 μl culture media at 10,000 cells/well (400,000 cells/ml) in Greiner white 384-well high volume plates and incubated overnight (18-24 h) at 37° C./5% CO2. Then, media was removed and 6 μl assay buffer [HBSS, 10 mM Hepes, 0.2% (w/v) BSA, 1.7 mM IBMX, (pH7.4)] were added to the wells. To generate a dose response up to 30 μM, 10 mM compound stocks in 100% (v/v) DMSO were firstly diluted in 50% (v/v) DMSO followed by a further dilution into assay buffer. Then, 4 μl of 2.5× compound (dose response as 9 point log serial dilution in assay buffer from 30 μM as maximum concentration) were added to each well achieving a final DMSO assay concentration of 0.8% (v/v). 0.1 μM forskolin was added as positive control. After 30 min (rGHS—R1a cell line) or 60 min (hGHS—R1a cell line) incubation at 37° C./5% CO2, 5 μl of cAMP-d2 and 5 μl of anti-cAMP antibody-cryptate, (both made in lysis buffer), were added to the plate followed by 1 h incubation at RT. During this time, cAMP produced by the cells competed with cAMP-d2 for the anti-cAMP antibody-cryptate molecule. Then, the plate was read on the Pherastar instrument (BMG, Germany) at two different emission wavelengths ([…]). Increasing levels of endogenous cAMP produced by cells could be followed by a decrease of FRET fluorescent signal and viceversa. Values represented by a change in arbitrary fluorescence ratios (665/620) were converted into cAMP concentrations by using a standard curve, the reagents for which were supplied with the kit. EC50 values of agonists were calculated using the nonlinear logistic function of the Prism 5 software (GraphPad, USA). Emax were expressed as relative values of the ghrelin response, which was defined as 100%.
(In general: cAMP levels reflect the balance of adenylyl cyclase and phosphodiesterase activity.)

T1 sequence (Q92847 whole entry): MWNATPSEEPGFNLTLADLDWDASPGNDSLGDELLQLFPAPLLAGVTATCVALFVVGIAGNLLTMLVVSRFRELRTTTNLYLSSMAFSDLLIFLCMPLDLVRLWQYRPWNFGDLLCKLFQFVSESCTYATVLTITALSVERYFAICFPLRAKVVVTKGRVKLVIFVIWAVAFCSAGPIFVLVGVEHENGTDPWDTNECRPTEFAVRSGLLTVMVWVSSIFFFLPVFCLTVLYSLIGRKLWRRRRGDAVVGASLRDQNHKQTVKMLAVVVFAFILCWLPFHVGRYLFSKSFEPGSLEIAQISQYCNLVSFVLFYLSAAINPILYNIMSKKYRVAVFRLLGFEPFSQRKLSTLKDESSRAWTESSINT

In the case of `CC(C)(C)CN1CC(c2ccccc2)C2(CCCN(C(=O)[C@@H](COCc3ccccc3)NC(=O)C(C)(C)N)C2)C1=O` (stereo partly drawn) [Example 1.75, 2-amino-N-((2R)-3-(benzyloxy)-1-(2-neopentyl-1-oxo-4-phenyl-2,7-diazaspiro[4.5]decan-7-yl)-1-oxopropan-2-yl)-2-methylpropanamide], the Emax in test [1] is 87%; in test [2] it was 176%.

On to `Cc1ccccc1C1CN(C)C(=O)C12CCCN(C(=O)[C@@H](COCc1ccccc1)NC(=O)C(C)(C)N)C2` (single isomer, unassigned) [Example 1.51], for which the figures for the Emax in test [1] and in test [2] were 98% and 141%, respectively.

`Cc1ccc(COC[C@@H](NC(=O)C(C)(C)N)C(=O)N2CCCC3(C2)C(=O)N(C)CC3c2ccccc2)cc1` (single isomer, unassigned) [Example 1.55]: the figures for the Emax in test [1] and in test [2] were 94% and 191%, respectively.

Take `CN1CN(c2ccccc2)C2(CCCN(C(=O)[C@@H](COCc3ccccc3)NC(=O)C(C)(C)N)C2)C1=O` (single isomer, unassigned) [Example 1.61]: the Emax in test [1] turned out to be 73%; in test [2], 189%.

On to `COc1ccc(COC[C@@H](NC(=O)C(C)(C)N)C(=O)N2CCCC3(C2)C(=O)N(C)CC3c2ccccc2)cc1` (single isomer, unassigned) [Example 6.0(ii), 2-Amino-N—[(R)-1-(4-methoxy-benzyloxymethyl)-2-((4S,5R)-2-methyl-1-oxo-4-phenyl-2,7-diaza-spiro[4.5]dec-7-yl)-2-oxo-ethyl]-2-methyl-propionamide or 2-Amino-N—[(R)-1-(4-methoxy-benzyloxymethyl)-2-(4R,5S)-2-methyl-1-oxo-4-phenyl-2,7-diaza-spiro[4.5]dec-7-yl)-2-oxo-ethyl]-2-methyl-propionamide], for which the Emax turned out to be 103% in test [1] and 268% in test [2].

With `Cc1ccc(COC[C@@H](NC(=O)C(C)(C)N)C(=O)N2CCCC3(C2)C(=O)N(C)CC3c2ccc(F)cc2)cc1` (stereo partly drawn) [Example 1.72, 2-amino-N-((2R)-1-(4-(4-fluorophenyl)-2-methyl-1-oxo-2,7-diazaspiro[4.5]decan-7-yl)-3-((4-methylbenzyl)oxy)-1-oxopropan-2-yl)-2-methylpropanamide], the values for the Emax in test [1] and in test [2] were 110% and 147%, respectively.

Regarding `CC(C)(N)C(=O)N[C@H](COCc1ccccc1)C(=O)N1CCCC2(C1)C(=O)NCC2c1ccccc1` (single isomer, unassigned) [Example 1.4], in test [1], the Emax came to 100%. In test [2], the “hGHS-R1a cAMP assay Emax/%” value was 127%.

For `CN1CC(c2ccccc2)C2(CCCN(C(=O)[C@@H](COCc3ccccc3)NC(=O)C(C)(C)N)CC2)C1=O` (single isomer, unassigned) [Example 9.0(iv)], the values for the Emax in test [1] and in test [2] were 96% and 127%, respectively.

As to `CN1N=C(c2ccccc2)C2(CCCN(C(=O)[C@@H](COCc3ccccc3)NC(=O)C(C)(C)N)C2)C1=O` (mixture of isomers) [Example 1.47, 2-Amino-N-[(R)-1-benzyloxymetnyl-2-(3-methyl-4-oxo-1-phenyl-2,3,7-triaza-spiro[4.5]dec-1-en-7-yl)-2-oxo-ethyl]-2-methyl-propionamide], the Emax in test [1] was found to be 104%; in test [2] it was 145%.

Regarding `CN1CC(c2ccc(Cl)cc2)C2(CCCN(C(=O)[C@@H](COCc3ccccc3)NC(=O)C(C)(C)N)C2)C1=O` (single isomer, unassigned) [Example 1.8], the figures for the Emax in test [1] and in test [2] were 102% and 149%, respectively.
